In patent publication US9682050B2, “Methods of treating lactose intolerance” (Nogra Pharma Limited, priority 2012, dated 2017):

Legend:
[1] = test system: PPAR semi deficient epithelial cells; assay: LCT gene expression in PPAR knock down (ShPPAR) Caco-2 cells; format: cell-based, human
Method: (§1) Transcripts of genes were estimated by quantitative PCR (qPCR) in order to confirm microarrays results. 1 μg of total RNA was reverse-transcripted into cDNA using the High Capacity cDNA Achive kit (Applied biosystems). qPCR was performed using an ABI PRISM 7000 sequence detection system (Applied Biosystem). Primer pairs for each transcript were chosen with qPrimer depot software. Quantification of qPCR signals was performed using ΔCt relative quantification method using GAPDH as a reference gene. The values were represented in terms of relative quantity of mRNA level variation or fold increase compared to control conditions.
PPARγ knock down IECs were obtained using the pSUPER.retro system (OligoEngine). Forward and reverse target sequences corresponding to nucleotides 105-123 of the human PPARg mRNA (5-′-GCCCTTCACTACTGTTGAC-3′ (SEQ ID NO: 1)) were cloned into the BglII/XhoI restriction sites of the pSUPERretro vector (pRS) giving the ShPPAR construct. A negative control pRS plasmid containing the sequence 5′-ACGCTGAGTACTTCGAAAT-3′ (SEQ ID NO: 2) targeted against the luciferase gene was also generated (ShLuc construct). Both constructions were transfected in Caco-2 cells using Nucleofector technology from Amaxa Biosystems, according to the manufacturer's protocol. […] The silencing of PPARg expression was checked by quantitative RT-PCR and western-blot analysis. […]

[2] = test system: human lactase gene; assay: Lactase mRNA expression (qPCR) in Caco-2 cells stimulated with PPAR agonists; format: cell-based; details: for LCT gene expression in Caco2 cells: summary statement
Method: Caco-2 colonic adenocarcinoma cell lines were used. Caco-2 cells grew in Dulbecco's modified Eagle's medium (DMEM, Invitrogen, Cergy-Pontoise, France) supplemented with 20% foetal calf serum (FCS, Dutscher, Brumath, France), 1% penicillin-streptomycin (5 ml/l) (Invitrogen) and 1% non-essential amino acids (5 ml/l) (Invitrogen). All cell lines were cultured as confluent monolayers at 37° C. in a controlled, 5% CO2 atmosphere. Each week, the confluent monolayer were trypsinized (Invitrogen) and then replated after a 1:10 dilution. For the stimulation experiments, cells were placed in 6-well plates at a density of 1×10^6 cells per well. Serum deprivation was used 16 hours prior to stimulation in order to synchronize the cells.
The cells were treated with Compound 34 (1 mM and 30 mM), 5-ASA (30 mM), or pioglitazone (1 μM). When necessary, the vehicle DMSO (Sigma) is used as control (Ctrl). After 24 hrs of stimulation, the wells were rinsed three times with sterile PBS at 4° C. The cells were then lysed with lysis buffer (RA1, Macherey-Nagel) containing 1% β-mercaptoethanol. The plates were frozen at −80° C. for subsequent RNA extraction. A time course experiment consisting of stimulation of Caco-2 cells by compound 34, 1 mM during 6 hrs and 12 hrs was also done in order to compare gene expression according treatment duration.
Total RNA were extracted with a Nucleospin RNA kit (Macherey-Nagel, Hoerdt, France). After RNAse inactivation, the total RNA was cleaned of trace genomic DNA via a DNAse treatment and eluted in RNAse-free, DEPC-free water. The purity of the RNA will be evaluated by UV spectroscopy on a Nanodrop system from 220 to 350 nm. Before microarray experiment, RNAs were also profiled on an Agilent 2100 bioanalyzer. One μg of total RNA were used in the microarray analysis (minimum concentration: 50 ng/μl).
as §1
Each experiment has been done at least twice. The lactase gene expression was first confirmed to be stimulated by compound 34 at two different concentrations (1 mM, fold increase 4.78, p=0.0002; 30 mM, fold increase 7.9, p=0.0006) (FIG. 4A).

Compound | LCT gene expression in PPAR semi deficient epithelial cells [1] | lactase gene expression, fold increase ([2]; 30 mM, 24 hrs, Caco-2 cells) [fold] | LCT gene expression in Caco2 cells [2] | lactase mRNA expression, fold increase ([2]; 1 μM, 24 hrs, Caco-2 cells) [fold]
Nc1ccc(O)c(C(=O)O)c1 [5ASA, 5-amino salicyclic acid] | kept their upregulatory effects | 12.69 | enhance LCT gene expression | –
CCc1ccc(CCOc2ccc(CC3SC(=O)NC3=O)cc2)nc1 (centres unmarked) [pioglitazone] | – | – | enhance LCT gene expression | 11.76
